# “And” between values parts separate entries of the source, which are not always exact repeats. Equal values may be shown once.
# Key:
# D-allose dehydrogenase [1] = assay: NAD cofactor coupled D-allose dehydrogenase spectrophotometric enzyme assay (340 nm); format: biochemical, Exophiala pisciphila; conditions: for Activity (carbohydrate specificity): Sugar 100 mM as substrate, pH 9.0, 30° C., same dose of enzyme extract
# Description: Soil and water samples were obtained from several sites and incubated with D-allose in a basic salts solution. The bacterial and fungal cultures were grown aerobically at 30° C. in a rotary incubator at 250 rpm. The basic salts growth medium contained: Na2 HPO4, 16 raM; KH2 PO4, 34 mM; (NH4)2 SO4, 15 mM; MgSO4, 1 mM; CaCl2, 0.1 mM; FeSO4, 0.01 mM and D-allose, 10 mM. The pH of the medium was 6.5. After growth in liquid, as determined by an increase in optical density, the cultures were streaked out on solid agar media containing D-allose as the growth substrate. […] After growth on D-allose, the individual cultures were harvested by centrifugation and the cells disrupted using a sonicator. Cell debris was removed by centrifugation and the crude cell extract was assayed for D-allose dehydrogenase enzymatic activity.
# The enzyme assay was performed with a Beckman DU70 recording spectrophotometer using 340 nanometer wavelength light with 20 sec. interval readings for a 10 minute time period. Assays were run in 1 ml cuvettes at a constant temperature of 30° C. The instantaneous reaction rate was measured as the change in optical density per minute; activity was calculated at early reaction times when the changes in optical density were linear with time. The rate of enzyme reaction is directly proportional to the appearance of reduced NAD at 340 nm, because the enzyme oxidizes D-allose and transfers two protons from D-allose to NAD. The extinction coefficient of NADH2 (6.23 OD/1 mM solution) was used to convert the change in optical density per minute to micromoles of product. A standard curve of reaction rate versus substrate concentration was used to determine the D-allose concentration in unknown samples (FIG. 1). The Km of an enzyme is the concentration of substrate that gives one half maximal reaction rate and is thus a measure of the affinity of the enzyme for this substrate. The Vmax of an enzyme is the maximum rate of reaction that can be obtained where the substrate concentration is fully saturating the enzyme. […] An internal standard control using a 20 mM addition of D-allose to a duplicate unknown sample was used to determine if the sample interfered with D-allose measurement. If interference was detected, the unknown sample D-allose concentration was corrected for by the percent interference measured in the internal control sample.
# The spectrophotometric enzyme reactions were performed in a 1 mL cuvette that contained the following. […]
# The results of Table 1 were obtained at 30° C. using a solution containing 100 mM in D-allose.
# In this series, a constant amount of enzyme extract was added to D-allose at various concentrations with the results summarized in Table 2.
# In these experiments 1 mL of a 100 mM solution of various sugars were treated at pH 9.0 and 30° C. with the same dose of enzyme extract.
# D-allose dehydrogenase [2] = assay: Visual qualitative D-allose assay with electron accepting dyes; format: biochemical, Exophiala pisciphila; conditions: phenozine methosulfate and nitro blue tetrazolium, phosphate buffer pH 8.0
# Text: The assay can be coupled with electron accepting dyes to form a visual qualitative D-allose assay. […] Control samples without D-allose remain light pink. The nature of the electron-accepting dye is not critical to the success of this qualitative assay; electron-accepting dyes are well known in the biochemical arts and are merely exemplified by the class of tetrazolium salts, one of which is nitro blue tetrazolium.
# The visual D-allose assay contained: […]
# [3] = animals and humans; cited from earlier work
structure (smiles),measurement,setting,value
"O=C[C@H](O)[C@@H](O)[C@H](O)[C@H](O)CO [D-glucose, reference compound]",Activity (carbohydrate specificity),D-allose dehydrogenase [1],< 0.07 µmol/min/mL
O=C[C@H](O)[C@H](O)[C@H](O)[C@H](O)CO [D-allose],Km,"D-allose dehydrogenase [1]; 30° C., pH 9.0 glycine-NaOH, NAD 5 mM, read-out: apparent Km for the enzyme with D-allose as substrate",77 mM
same,Activity,"D-allose dehydrogenase [1]; Buffer 0.2 molar, initial pH 9.0, final pH 8.5, 100 mM D-allose, 30° C.",2.35 µmol/min/mL
same,Activity,"D-allose dehydrogenase [1]; Buffer 0.5 molar, initial pH 9.0, final pH 8.9, 100 mM D-allose, 30° C.",2.56 µmol/min/mL
same,Activity,"D-allose dehydrogenase [1]; Buffer 1.0 molar, initial pH 9.0, final pH 9.0, 100 mM D-allose, 30° C.",2.75 µmol/min/mL
same,Activity,"D-allose dehydrogenase [1]; Buffer 2.0 molar, initial pH 9.0, final pH 9.0, 100 mM D-allose, 30° C.",3.13 µmol/min/mL
same,Activity,"D-allose dehydrogenase [1]; D-allose 1 mM, constant amount of enzyme extract",0.13 μmole/min/ml of extract
same,% Inhibition,D-allose dehydrogenase [1]; D-allose 10 mM in 20% human serum,16%
same,Activity,"D-allose dehydrogenase [1]; D-allose 10 mM, constant amount of enzyme extract",0.80 μmole/min/ml of extract
same,Activity,"D-allose dehydrogenase [1]; D-allose 100 mM, constant amount of enzyme extract",3.07 μmole/min/ml of extract
same,Activity,"D-allose dehydrogenase [1]; Enzyme Extract 20 μL, 100 mM D-allose, 30° C.",0.09 µmol/min
same,Activity,"D-allose dehydrogenase [1]; Enzyme Extract 50 μL, 100 mM D-allose, 30° C.",0.15 µmol/min
same,Activity,"D-allose dehydrogenase [1]; Enzyme Extract 100 μL, 100 mM D-allose, 30° C.",0.26 µmol/min
same,Activity (carbohydrate specificity),D-allose dehydrogenase [1],2.93 µmol/min/mL
same,Activity,"D-allose dehydrogenase [1]; pH of assay buffer 8.0, 100 mM D-allose, 30° C.",< 0.05 µmol/min/mL
same,Activity,"D-allose dehydrogenase [1]; pH of assay buffer 8.5, 100 mM D-allose, 30° C.",0.78 µmol/min/mL
same,Activity,"D-allose dehydrogenase [1]; pH of assay buffer 9.0, 100 mM D-allose, 30° C.",2.38 µmol/min/mL and 2.31 µmol/min/mL
same,Activity,"D-allose dehydrogenase [1]; pH of assay buffer 9.5, 100 mM D-allose, 30° C.",0.10 µmol/min/mL
same,Activity,"D-allose dehydrogenase [1]; pH of assay buffer 10.0, 100 mM D-allose, 30° C.",< 0.05 µmol/min/mL
same,visual color change,D-allose dehydrogenase [2],color change from light pink to dark blue
same,excretion,[3],easily excreted
same,metabolism,[3],not readily metabolized
"O=C[C@H](O)[C@H](O)[C@H](O)CO [D-ribose, reference compound]",Activity (carbohydrate specificity),D-allose dehydrogenase [1],< 0.07 µmol/min/mL
"O=C[C@@H](O)[C@@H](O)[C@H](O)[C@H](O)CO [D-mannose, reference compound]",Activity (carbohydrate specificity),D-allose dehydrogenase [1],< 0.07 µmol/min/mL
"O=C[C@@H](O)[C@H](O)[C@H](O)[C@H](O)CO [D-altrose, reference compound]",Activity (carbohydrate specificity),D-allose dehydrogenase [1],< 0.07 µmol/min/mL
